Laboratory results: patent US11427569B2, “Benzoimidazole indolyl methanes and methods of using them to inhibit PCKS9 and PCKS9-mediated ailments” (Wisconsin Alumni Research Foundation, priority 2019, dated 2022)
Values joined by “and” are separate entries in the source; they are usually repeats but may differ in a detail not shown here. Identical values can stand only once.

Target: T1, PCSK9 (Homo sapiens, UniProt Q8NBP7)
T1 construct: endogenous in cells; host or cells: HepG2 (ATCC HB-8065)
Test: ELISA of secreted (extracellular, medium) PCSK9 in HepG2 cells
Format: cell-based
Conditions: for Activity at 1 μM (% of remaining PCSK9): 1 μM compound; for Activity at 1 μM (% of remaining PCSK9) / Activity at 10 μM (% of remaining PCSK9): HepG2 cells, DMSO = 100%; for Activity at 10 μM (% of remaining PCSK9): 10 μM compound; for IC50: dose-response curves, extracellular PCSK9, cultured HepG2 cells (FIG. 4)
Description: The human hepatoma cell line, HepG2, was cultured and maintained in low glucose Dulbecco's modified Eagle's medium (DMEM) supplemented with 10% fetal bovine serum (FBS) and 1% penicillin, streptomycin solution. (ATCC HB-8065, American Type Culture Collection, Manassas, Va.) The medium was further supplemented with 1% each of nonessential amino acids (NEAA), sodium pyruvate and L-glutamine.
Freshly cultured HepG2 cells were harvested from vacuum gas plasma-treated T75 cell culture flasks and plated onto vacuum gas plasma-treated clear 12 or 96 well plates (Fisher Scientific, Waltham, Mass. catalog nos. 353072 and 353043, respectively) at 70% confluent in 1000 μl/well or 200 μl/well of growth medium respectively. Cell plates were incubated overnight at 37° C. and 5% CO2 prior to compound treatment. For screening experiments, compounds at an initial concentration of 20 mM in 100% DMSO were diluted to different concentrations in growth medium.
For the generation of dose-response curves, compounds at an initial concentration of 20 mM in 100% DMSO were diluted to 30 μM in growth medium. The 30 μM solutions were then serially diluted 10-fold to achieve final concentration of 30 μM, 3 μM, 0.3 μM, 0.03 μM, and 0.003 μM in assay medium. Growth medium was aspirated from the plated cells and medium containing compound was added to the appropriate well. Cells were allowed to incubate for 24 h or 48 h at 37° C. and 5% CO2. Medium was collected from cells and centrifuged at 14,000 rpm for five min. The upper 50% of spun medium was collected and frozen for later analysis. The remaining cells were washed twice with 1000 μl/well or 200 μl/well cold phosphate buffered saline (PBS) at pH 7.4 and placed on ice. Cells were treated with 100 μl/well or 60 μl/well of lysis buffer comprised of 50 mM Tris, pH 8; 1% NP-40; 150 mM NaCl; 1 mM EDTA (purchased from Cell Signaling Technology, Inc., Danvers, Mass., catalog no. 9803) containing 1 mM phenylmethane sulfonyl fluoride (PMSF) and Roche protease inhibitor cocktail (available from Sigma-Aldrich, St. Louis, Mo.). Cells were allowed to incubate in lysis buffer on ice for 30 min. Cells were then collected and frozen overnight. Cells were centrifuged the next day at 14,000 rpm for 15 min. The supernatant was collected and analyzed for total protein or PCSK9 concentration.
Inhibition of secreted PCSK9 was measured in human hepatocellular carcinoma (HepG2) cells using a PCSK9 Quantikine®-brand ELISA kit purchased from R&D Systems, a wholly owned subsidiary of Bio-Techne Corporation, Minneapolis, Minn. (“Human Proprotein Convertase 9/PCSK9 Quantikine® ELISA Kit,” catalog #DPC900). The protocol provided in the kit was followed. Briefly, PCSK9 standards were prepared according to the instructions provided with the kit at final concentrations of 40 ng/mL, 20 ng/mL, 10 ng/mL, 5 ng/mL, 2.5 ng/mL, 1.25 ng/mL, 0.625 ng/mL and 0 ng/mL. The ELISA was conducted with the provided capture antibody-coated 96-well plate. Assay diluent was added to all relevant wells at a volume of 100 μL. 50 μL of sample (medium or cell lysate) or PCSK9 standard (in duplicate) was then added to the appropriate well. The plate was allowed to incubate for 2 h at room temperature. All wells were aspirated and washed four times with 300 μl of wash buffer. After washing, 200 μL of anti-PCSK9-HRP conjugate was added to all wells and the plate was allowed to incubate at room temperature for 2 h. After incubation all wells were aspirated and washed again four times with 300 μL of washing buffer.
After washing was completed, 200 μL of freshly prepared colorimetric reagent was added to all wells and the plate was incubated at room temperature in the dark for 30 min. After this final incubation a stop solution of 1N sulfuric acid was added to all wells, at which point absorbance was measured using a Tecan Infinite M1000 microplate reader at a wavelength of 450 nm (background absorbance was corrected by subtracting the absorbance measured at 540 nm). […]

T1 sequence (Q8NBP7 153-692): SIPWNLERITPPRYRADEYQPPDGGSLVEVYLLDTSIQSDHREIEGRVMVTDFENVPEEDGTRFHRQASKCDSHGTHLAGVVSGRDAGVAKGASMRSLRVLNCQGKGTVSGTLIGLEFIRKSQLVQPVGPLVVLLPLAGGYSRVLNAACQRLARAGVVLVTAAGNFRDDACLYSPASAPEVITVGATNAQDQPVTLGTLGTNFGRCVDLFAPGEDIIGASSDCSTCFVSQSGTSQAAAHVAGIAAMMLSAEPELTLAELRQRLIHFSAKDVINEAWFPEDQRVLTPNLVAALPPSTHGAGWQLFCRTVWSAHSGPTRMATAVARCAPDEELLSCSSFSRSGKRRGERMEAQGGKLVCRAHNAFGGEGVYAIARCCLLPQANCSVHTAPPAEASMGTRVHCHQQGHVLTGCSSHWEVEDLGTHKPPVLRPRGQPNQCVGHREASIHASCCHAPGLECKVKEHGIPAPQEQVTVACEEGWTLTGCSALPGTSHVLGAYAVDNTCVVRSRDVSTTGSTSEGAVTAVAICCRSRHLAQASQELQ

Row | Structure (SMILES) | Activity at 1 μM (% of remaining PCSK9) | Activity at 10 μM (% of remaining PCSK9) | IC50
1 | COc1ccc2cc3[n+](cc2c1OC)CCc1cc2c(cc1-3)OCO2 [BBR, berberine, reference compound] | 88% and 69% | 54% and 51% | 
2 | Fc1ccc2[nH]c(Cc3c[nH]c4c(F)cccc34)nc2c1 [HX81] | 46% and 40% |  | 
3 | Fc1ccc2nc(Cc3c[nH]c4c(F)cccc34)n(Cc3ccccc3)c2c1 [HX178] | 75% | 31% | 
4 | Fc1ccc2nc(Cc3c[nH]c4c(F)cccc34)n(CCc3ccccc3)c2c1 [HX179] | 62% | 48% | 
5 | Fc1ccc2nc(Cc3c[nH]c4c(F)cccc34)n(Cc3ccncc3)c2c1 [HX181] | 60% | 33% | 
6 | Fc1ccc2nc(Cc3c[nH]c4c(F)cccc34)n(Cc3cccnc3)c2c1 [HX182] | 86% | 89% | 
7 | OCCn1c(Cc2c[nH]c3c(F)cccc23)nc2ccc(F)cc21 [HX183] | 70% | 27% | 
8 | Cn1c(Cc2c[nH]c3c(F)cccc23)nc2ccc(F)cc21 [HX184] | 34% | 10% | 
9 | CC(C)Cn1c(Cc2c[nH]c3c(F)cccc23)nc2ccc(F)cc21 [HX185] | 65% | 42% | 
10 | CC(C)(C)Cn1c(Cc2c[nH]c3c(F)cccc23)nc2ccc(F)cc21 [HX186] | 84% | 73% | 

Second part, the compound after the results:

Row | Activity at 1 μM (% of remaining PCSK9) | Activity at 10 μM (% of remaining PCSK9) | IC50 | Structure (SMILES)
11 | 45% | 25% |  | [2H]C([2H])(c1nc2cc(F)ccc2[nH]1)c1c[nH]c2c(F)cccc12 [HX212]
12 | 28% | 26% | 0.5 nM | O=C(c1nc2ccc(F)cc2[nH]1)c1c[nH]c2c(F)cccc12 [HX235]
13 | 25% | 15% | 13 nM | O=C(c1cc2cc(F)ccc2[nH]1)c1c[nH]c2c(F)cccc12 [HX240]
14 | 25% | 13% |  | O=C(c1cc2ccccc2[nH]1)c1c[nH]c2ccccc12 [HX257]
15 | 20% | 14% |  | O=C(c1cc2ccccc2[nH]1)c1c[nH]c2c(F)cccc12 [HX258]
16 | 28% | 13% |  | O=C(c1cc2cc(F)ccc2[nH]1)c1c[nH]c2ccccc12 [HX259]
17 | 21% | 20% |  | Cn1c(C(=O)c2c[nH]c3c(F)cccc23)nc2ccc(F)cc21 [HX261]
18 | 30% | 20% |  | O=C(c1nc2ccccc2[nH]1)c1c[nH]c2ccccc12 [HX262]
19 | 27% | 21% |  | O=C(c1nc2ccccc2[nH]1)c1c[nH]c2c(F)cccc12 [MF025]
20 | 59% and 50% | 17% and 13% | 44 nM | Fc1ccc2[nH]c(Cc3c[nH]c4c(F)cccc34)cc2c1 [compound 9577]
